The subject of test [1] is PWR-1E cells. Nature of the test: MTT cell proliferation assay, 7 d, PWR-1E. Particulars: Homo sapiens, 168 h, immortalized untransformed prostate cells, 7 d treatment. The format is cell-based. From the text:
(§1) Androgen-dependent (LNCaP), androgen-independent (PC-3) and castration resistant (C4-2B and 22Rv1) human prostate carcinoma cells were procured from American Type Culture Collection, Manassas, VA, USA and maintained in RPMI 1640 media (Gibco-Life Technologies, Grand Island, NY, USA) supplemented with 10% fetal bovine serum and 1% penicillin/streptomycin. […] Immortalized untransformed prostate epithelial cells, PWR1E from American Type Culture Collection were maintained in serum-free Keratinocyte media (Gibco) supplemented with epidermal growth factor and bovine pituitary extract. All cell lines were maintained in a 37 °C/5% CO2 humidified atmosphere.
(§2) Cell proliferation assay was performed as described previously. For cell growth experiment, cells were treated with the NRs for 7 days. MTT assay was performed at the end of the experiment. Calculations of combination indices were done using the Calcusyn program (Biosoft, Cambridge, United Kingdom). For colony formation assay, cells were plated 1000 per well in complete media and allowed to adhere for 24 h. The next day cells were treated with indicated compounds (5 μM). After 24 h compound containing media were removed, and cells were allowed to form colonies in complete media. Approximately 2 weeks later the colonies were fixed, stained with 0.5% crystal violet (sigma) for 30 min and counted manually. Results represent the mean ± standard deviation of three independent experiments.

Test [2] relates to PC-3 cells. Kind of test: MTT cell proliferation assay, 7 d, PC-3. The format is cell-based. Particulars: Homo sapiens, PC-3, 168 h, 7 d treatment.
From the text: as §1, §2
In general terms: Tetrazolium assays rely on reduction of a dye to a coloured formazan, in cell work by metabolically active cells.

The subject of test [3] is C4-2B cells. Kind of test: MTT cell proliferation assay, 7 d, C4-2B. Type of test: cell-based. As to conditions: Homo sapiens, 168 h, 7 d treatment.
From the text: as §1, §2

The test system of test [4] is 22Rv1 cells. Nature of the test: MTT cell proliferation assay, 7 d, 22Rv1. Type of test: cell-based. Particulars: Homo sapiens, 22Rv1, 168 h, 7 d treatment.
From the text: as §1, §2

For test [5], the system named is LNCaP cells. Nature of the test: MTT cell proliferation assay, 7 d, LNCaP. Type of test: cell-based, human. Particulars: 7 d treatment.
From the text: as §1, §2

Test [6] relates to PCa cells. Nature of the test: MTT cell viability in PCa cells (LNCaP, PC-3, C4-2B, 22Rv1). The format is cell-based, human. As to conditions: Homo sapiens, range over PCa cell lines. Here is the method:
as §2

Test [7] has as its system fAR, MNK1, MNK2, peIF4E. Kind of test: Western blot of fAR, MNK1, MNK2, peIF4E in VNLG-152 treated LNCaP cells. Type of test: cell-based, human. On the procedure: Figure 6 Effect of siAR, siMNK1 on LNCaP cell viability, and VNLG-152 on key and downstream proteins in LNCaP cells (A) Western blot analysis of the expression of fAR, MNK1 and peIF4E in LNCaP cells transfected with 100 nM of siAR, siMNK1 and combinations for 18 h. (B) Effect of VNLG-152 (5 μmol) on cell proliferation in LNCaP cells transfected with siAR, siMNK1 and combinations as determined by MTT assay. The results represent the mean ± SEM of three independent experiments and are represented as a bar graph after normalizing to control cells. *, P< 0.05; ♣, P<0.01 compared with vehicle treated control. (C) Dose-dependent effect of VNLG-152 on the expression of AR, MNKs, peIF4E and downstream target proteins. Total cell lysate from LNCaP cells treated with VNLG-152 (0 - 20 μmol/L) for 24 h were separated by SDS-PAGE and probed with corresponding antibodies. Vehicle treated cells were included as control and all blots were reprobed for β-actin to ensure equal protein loading.
Figure 7 VNLG-152 induced AR degradation by ubiquitin proteasomal pathway in LNCaP cells (A) Western blot analysis of the expression of fAR in LNCaP cells treated with VNLG-152 (20 μmol/L) in the presence or absence of CHX (10 μmol/L) at 6, 12 and 24 h of treatment. (B) Densitometric analysis of the expression of fAR in different groups *, P< 0.05; ♣, P<0.01 compared with vehicle treated control. (C) Western blot analysis of the expression of fAR in LNCaP cells treated with VNLG-152 (20 μmol/L) in the presence or absence of MG-132 (5 μmol/L). (D) LNCaP cells were treated with 20 μmol/L of VNLG-152, 5 μmol/L of MG-132, and combinations for 24 h. AR protein was immunoprecipitated with AR antibody (mouse) and the precipitated protein was subjected to western blot analysis with anti-ubiquitin antibody (Ub) ([…]). The same blot was used to detect AR protein with anti-AR (rabbit) antibody after stripping (C, lower panel). […]
Background: In western blotting, separated proteins are transferred to a membrane and probed.

Each structure is given as a SMILES string. Where two headings read alike, the source gives them in different places.

Turning to `CC1=C(/C=C/C(C)=C/C=C/C(C)=C/C(=O)Nc2ccc(F)cc2)C(C)(C)CCC1n1ccnc1` (racemic) [VNLG-152], the GI50 (in general, the concentration giving 50% growth inhibition) in test [1] stood at 47900 nM; in test [2], 5620 nM; in test [3] it was 1540 nM; in test [4] it was 3230 nM; in test [5] (read-out: GI50 LNCaP), 2450 nM; in test [5] (Homo sapiens, LNCaP, 168 h, read-out: GI50 LNCaP) it was 2500 nM. The GI50 in test [5] (Homo sapiens, LNCaP, 168 h, DHT induced, read-out: GI50 LNCaP, DHT induced) is 1860 nM; in test [6] it was 1500 to 5500 nM. In addition, the “time by which AR and MNK (MNK1 and MNK2) were profoundly reduced” value in test [7] (20 μmol/L) is given as ≤ 12 h. Further, the “concentration of maximal effect on MNK2 expression” value in test [7] (0.6-20 μM, 24 h) was found to be 20 µM. Moreover, in test [7] (0.6-20 μM, 24 h), the “concentration with notable decrease in expression of fAR, MNK1 and peIF4E” value was ≥ 2.5 µM.

(Values after publication PMC4413647, “Simultaneous targeting of androgen receptor (AR) and MAPK-interacting kinases (MNKs) by novel retinamides inhibits growth of human prostate cancer cell lines” (Oncotarget, 2014).)
